Patent publication US7723523B2, “Tetrahydropyridothiophenes” (4SC AG, priority 2004, dated 2010)
pIC50: −log10 of the molar value.

Legend:
[1] = tested on: RKO (RKOp27) human colon adenocarcinoma cells; assay: Alamar Blue cell viability assay, anti-proliferative/cytotoxic activity on proliferating RKOp27 cells; type: cell-based; settings: absence of Ponasterone A, 72 hours incubation, read-out: IC50 RKO p27 proliferating
Outline: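 RKOp27 subclone of RKO cells, 4000/well in DMEM with 10% FCS, was treated 24 h after seeding with semi-log compound dilutions in quadruplicate for 72 h at 37 °C, 5% CO2. Alamar Blue fluorescence (ex 544/em 590 nm) was read as % viability of untreated cells, and IC50 was taken from concentration-effect curves.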

[2] = tested on: RKO colon adenocarcinoma cells (RKOp27) arrested by expression of ectopic p27Kip1; assay: Alamar Blue cell viability assay on RKOp27 cells arrested by Ponasterone A-induced p27Kip1 (cell cycle specific mode of action); type: cell-based; settings: Homo sapiens, RKOp27, 72 h, cells arrested by p27Kip1 induced with 10 μM Ponasterone A, 72 hours incubation, read-out: IC50 RKO p27 arrested
Outline: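 Viability measured by Alamar Blue fluorescence (ex 544, em 590 nm) after 72 h, 37 °C compound exposure in quadruplicate, normalized to untreated cells as 100%. Cells were p27Kip1-arrested RKOp27, induced with 10 μM Ponasterone A at seeding; compound added 24 h later.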

SMILES | pIC50 [1] | pIC50 [2]
N#Cc1c(NC(=O)/C=C/c2ccccc2)sc2c1CCN(C(=O)OCC(O)CO)C2 (centres unmarked) [Example 128, 3-Cyano-2-((E)-3-phenyl-allanoylamino)-4,7-dihydro-5H-thieno[2,3-c]pyridine-6-carboxylic acid 2,3-dihydroxy-propyl ester] | ≥ 5.70 | ≤ 4.00
COCCOCCOC(=O)N1CCc2c(sc(NC(=O)/C=C/c3ccccc3)c2C#N)C1 [Example 129, 3-Cyano-2-((E)-3-phenyl-allanoylamino)-4,7-dihydro-5H-thieno[2,3-c]pyridine-6-carboxylic acid 2-(2-methoxy-ethoxy)-ethyl ester] | ≥ 5.70 | ≤ 4.00
COC(=O)COC(=O)N1CCc2c(sc(NC(=O)/C=C/c3ccccc3)c2C#N)C1 [Example 133, 3-Cyano-2-((E)-3-phenyl-allanoylamino)-4,7-dihydro-5H-thieno[2,3-c]pyridine-6-carboxylic acid methoxycarbonylmethyl ester] | ≥ 5.70 | ≤ 4.00
CC(=O)NCCOC(=O)N1CCc2c(sc(NC(=O)/C=C/c3ccccc3)c2C#N)C1 [Example 134, 3-Cyano-2-((E)-3-phenyl-allanoylamino)-4,7-dihydro-5H-thieno[2,3-c]pyridine-6-carboxylic acid 2-acetylamino-ethyl ester] | ≥ 5.70 | ≤ 4.00
N#Cc1c(NC(=O)/C=C/c2ccccc2)sc2c1CCN(C(=O)OCCO)C2 [Example 135, 3-Cyano-2-((E)-3-phenyl-allanoylamino)-4,7-dihydro-5H-thieno[2,3-c]pyridine-6-carboxylic acid 2-hydroxy-ethyl ester] | ≥ 5.70 | ≤ 4.00
N#Cc1c(NC(=O)/C=C/c2ccccc2)sc2c1CCN(C(=O)OCCn1ccnc1)C2 [Example 136, 3-Cyano-2-((E)-3-phenyl-allanoylamino)-4,7-dihydro-5H-thieno[2,3-c]pyridine-6-carboxylic acid 2-imidazol-1-yl-ethyl ester] | ≥ 5.70 | ≤ 4.00
COCCOC(=O)N1CCc2c(sc(NC(=O)/C=C/c3ccccc3OC)c2C#N)C1 [Example 137, 3-Cyano-2-[(E)-3-(2-methoxy-phenyl)-allanoylamino]-4,7-dihydro-5H-thieno[2,3-c]pyridine-6-carboxylic acid 2-methoxy-ethyl ester] | ≥ 5.70 | ≤ 4.00
COc1ccccc1/C=C/C(=O)Nc1sc2c(c1C#N)CCN(C(=O)OCc1ccccn1)C2 [Example 138, 3-Cyano-2-[(E)-3-(2-methoxy-phenyl)-allanoylamino]-4,7-dihydro-5H-thieno[2,3-c]pyridine-6-carboxylic acid pyridin-2-ylmethyl ester] | ≥ 5.70 | ≤ 4.00
COc1ccccc1/C=C/C(=O)Nc1sc2c(c1C#N)CCN(C(=O)OCCc1ccccn1)C2 [Example 139, 3-Cyano-2-[(E)-3-(2-methoxy-phenyl)-allanoylamino]-4,7-dihydro-5H-thieno[2,3-c]pyridine-6-carboxylic acid 2-pyridin-2-yl-ethyl ester] | ≥ 5.70 | ≤ 4.00
COc1ccccc1/C=C/C(=O)Nc1sc2c(c1C#N)CCN(C(=O)OCc1cccnc1)C2 [Example 140, 3-Cyano-2-[(E)-3-(2-methoxy-phenyl)-allanoylamino]-4,7-dihydro-5H-thieno[2,3-c]pyridine-6-carboxylic acid pyridin-3-ylmethyl ester] | ≥ 5.70 | ≤ 4.00
COCCOC(=O)N1CCc2c(sc(NC(=O)/C=C/c3ccccc3Cl)c2C#N)C1 [Example 142, 2-[(E)-3-(2-Chloro-phenyl)-allanoylamino]-3-cyano-4,7-dihydro-5H-thieno[2,3-c]pyridine-6-carboxylic acid 2-methoxy-ethyl ester] | ≥ 5.70 | ≤ 4.00
COc1ccc(OC(=O)N2CCc3c(sc(NC(=O)/C=C/c4cccnc4)c3C#N)C2)cc1 [Example 143, 3-Cyano-2-((E)-3-pyridin-3-yl-allanoylamino)-4,7-dihydro-5H-thieno[2,3-c]pyridine-6-carboxylic acid 4-methoxy-phenyl ester] | ≥ 5.70 | ≤ 4.00
N#Cc1c(NC(=O)/C=C/c2cccnc2)sc2c1CCN(C(=O)OCc1ccccc1)C2 [Example 144, 3-Cyano-2-((E)-3-pyridin-3-yl-allanoylamino)-4,7-dihydro-5H-thieno[2,3-c]pyridine-6-carboxylic acid benzyl ester] | ≥ 5.70 | ≤ 4.00
CCCOC(=O)N1CCc2c(sc(NC(=O)/C=C/c3cccnc3)c2C#N)C1 [Example 145, 3-Cyano-2-((E)-3-pyridin-3-yl-allanoylamino)-4,7-dihydro-5H-thieno[2,3-c]pyridine-6-carboxylic acid propyl ester] | ≥ 6.30 | ≤ 4.30
COc1ccc(CCOC(=O)N2CCc3c(sc(NC(=O)/C=C/c4cccnc4)c3C#N)C2)cc1 [Example 146, 3-Cyano-2-((E)-3-pyridin-3-yl-allanoylamino)-4,7-dihydro-5H-thieno[2,3-c]pyridine-6-carboxylic acid 2-(4-methoxy-phenyl)-ethyl ester] | ≥ 5.70 | ≤ 4.00
COc1cccc(COC(=O)N2CCc3c(sc(NC(=O)/C=C/c4cccnc4)c3C#N)C2)c1 [Example 147, 3-Cyano-2-((E)-3-pyridin-3-yl-allanoylamino)-4,7-dihydro-5H-thieno[2,3-c]pyridine-6-carboxylic acid 3-methoxy-benzyl ester] | ≥ 5.70 | ≤ 4.00
N#Cc1c(NC(=O)/C=C/c2cccnc2)sc2c1CCN(C(=O)OCCCc1ccccc1)C2 [Example 148, 3-Cyano-2-((E)-3-pyridin-3-yl-allanoylamino)-4,7-dihydro-5H-thieno[2,3-c]pyridine-6-carboxylic acid 3-phenyl-propyl ester] | ≥ 5.70 | ≤ 4.00
N#Cc1c(NC(=O)/C=C/c2cccnc2)sc2c1CCN(C(=O)OCc1ccccn1)C2 [Example 149, 3-Cyano-2-((E)-3-pyridin-3-yl-allanoylamino)-4,7-dihydro-5H-thieno[2,3-c]pyridine-6-carboxylic acid pyridin-2-ylmethyl ester] | ≥ 5.70 | ≤ 4.00
N#Cc1c(NC(=O)/C=C/c2cccnc2)sc2c1CCN(C(=O)OCc1cccnc1)C2 [Example 150, 3-Cyano-2-((E)-3-pyridin-3-yl-allanoylamino)-4,7-dihydro-5H-thieno[2,3-c]pyridine-6-carboxylic acid pyridin-3-ylmethyl ester] | ≥ 5.70 | ≤ 4.00
COC(=O)c1ccc(OC(=O)N2CCc3c(sc(NC(=O)/C=C/c4cccnc4)c3C#N)C2)cc1 [Example 151, 3-Cyano-2-((E)-3-pyridin-3-yl-allanoylamino)-4,7-dihydro-5H-thieno[2,3-c]pyridine-6-carboxylic acid 4-methoxycarbonyl-phenyl ester] | ≥ 5.70 | ≤ 4.00
COc1cccc(CCOC(=O)N2CCc3c(sc(NC(=O)/C=C/c4cccnc4)c3C#N)C2)c1 [Example 152, 3-Cyano-2-((E)-3-pyridin-3-yl-allanoylamino)-4,7-dihydro-5H-thieno[2,3-c]pyridine-6-carboxylic acid 2-(3-methoxy-phenyl)-ethyl ester] | ≥ 5.70 | ≤ 4.00
N#Cc1c(NC(=O)/C=C/c2cccnc2)sc2c1CCN(C(=O)Oc1ccccn1)C2 [Example 154, 3-Cyano-2-((E)-3-pyridin-3-yl-allanoylamino)-4,7-dihydro-5H-thieno[2,3-c]pyridine-6-carboxylic acid pyridin-2-yl ester] | ≥ 5.70 | ≤ 4.00
N#Cc1c(NC(=O)/C=C/c2cccnc2)sc2c1CCN(C(=O)OCCN1CCOCC1)C2 [Example 156, 3-Cyano-2-((E)-3-pyridin-3-yl-allanoylamino) 4,7-dihydro-5H-thieno[2,3-c]pyridine-6-carboxylic acid 2-morpholin-4-yl-ethyl ester] | ≥ 5.70 | ≤ 4.00
N#Cc1c(NC(=O)/C=C/c2cccnc2)sc2c1CCN(C(=O)OCCCc1cccnc1)C2 [Example 157, 3-Cyano-2-((E)-3-pyridin-3-yl-allanoylamino)-4,7-dihydro-5H-thieno[2,3-c]pyridine-6-carboxylic acid 3-pyridin-3-yl-propyl ester] | ≥ 6.30 | ≤ 4.30
N#Cc1c(NC(=O)/C=C/c2cccnc2)sc2c1CCN(C(=O)OCCc1ccccn1)C2 [Example 158, 3-Cyano-2-((E)-3-pyridin-3-yl-allanoylamino)-4,7-dihydro-5H-thieno[2,3-c]pyridine-6-carboxylic acid 2-pyridin-2-ylethyl ester] | ≥ 5.70 | ≤ 4.00
N#Cc1c(NC(=O)/C=C/c2cccnc2)sc2c1CCN(C(=O)OCCc1cccnc1)C2 [Example 159, 3-Cyano-2-((E)-3-pyridin-3-yl-allanoylamino)-4,7-dihydro-5H-thieno[2,3-c]pyridine-6-carboxylic acid 2-pyridin-3-yl-ethyl ester] | ≥ 5.70 | ≤ 4.00
N#Cc1c(NC(=O)/C=C/c2cccnc2)sc2c1CCN(C(=O)OCc1ccncc1)C2 [Example 160, 3-Cyano-2-((E)-3-pyridin-3-yl-allanoylamino)-4,7-dihydro-5H-thieno[2,3-c]pyridin-6-carboxylic acid pyridin-4-ylmethyl ester] | ≥ 5.70 | ≤ 4.00
CCOC(=O)COC(=O)N1CCc2c(sc(NC(=O)/C=C/c3cccnc3)c2C#N)C1 [Example 161, 3-Cyano-2-((E)-3-pyridin-3-yl-allanoylamino)-4,7-dihydro-5H-thieno[2,3-c]pyridine-6-carboxylic acid ethoxycarbonylmethyl ester] | ≥ 5.70 | ≤ 4.00
